# Like-named read-outs stand apart in the source and are kept apart here.
# Legend:
# EGFR Del19/T790M/C797S = EGFR Del19/T790M/C797S (Homo sapiens, UniProt P00533, C797S/DEL746-750/T790M); assay: Biochemical EGFR kinase inhibition assay (Lance Ultra TR-FRET), triple mutant del19/T790M/C797S
# Method in brief: (§1)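 Kinase activity is measured by TR-FRET phosphopeptide detection. Compounds span 0.003 μM to 10 μM; the 1 h reaction at room temperature is quenched with EDTA, then labelled antibody (2 nM) is incubated 60 min before reading.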
# EGFR L858R/T790M/C797S = EGFR L858R/T790M/C797S (Homo sapiens, UniProt P00533, C797S/L858R/T790M); assay: Biochemical EGFR kinase inhibition assay (Lance Ultra TR-FRET), triple mutant L858R/T790M/C797S
# Sequence of EGFR L858R/T790M/C797S (P00533 25-1210 T790M/C797S/L858R): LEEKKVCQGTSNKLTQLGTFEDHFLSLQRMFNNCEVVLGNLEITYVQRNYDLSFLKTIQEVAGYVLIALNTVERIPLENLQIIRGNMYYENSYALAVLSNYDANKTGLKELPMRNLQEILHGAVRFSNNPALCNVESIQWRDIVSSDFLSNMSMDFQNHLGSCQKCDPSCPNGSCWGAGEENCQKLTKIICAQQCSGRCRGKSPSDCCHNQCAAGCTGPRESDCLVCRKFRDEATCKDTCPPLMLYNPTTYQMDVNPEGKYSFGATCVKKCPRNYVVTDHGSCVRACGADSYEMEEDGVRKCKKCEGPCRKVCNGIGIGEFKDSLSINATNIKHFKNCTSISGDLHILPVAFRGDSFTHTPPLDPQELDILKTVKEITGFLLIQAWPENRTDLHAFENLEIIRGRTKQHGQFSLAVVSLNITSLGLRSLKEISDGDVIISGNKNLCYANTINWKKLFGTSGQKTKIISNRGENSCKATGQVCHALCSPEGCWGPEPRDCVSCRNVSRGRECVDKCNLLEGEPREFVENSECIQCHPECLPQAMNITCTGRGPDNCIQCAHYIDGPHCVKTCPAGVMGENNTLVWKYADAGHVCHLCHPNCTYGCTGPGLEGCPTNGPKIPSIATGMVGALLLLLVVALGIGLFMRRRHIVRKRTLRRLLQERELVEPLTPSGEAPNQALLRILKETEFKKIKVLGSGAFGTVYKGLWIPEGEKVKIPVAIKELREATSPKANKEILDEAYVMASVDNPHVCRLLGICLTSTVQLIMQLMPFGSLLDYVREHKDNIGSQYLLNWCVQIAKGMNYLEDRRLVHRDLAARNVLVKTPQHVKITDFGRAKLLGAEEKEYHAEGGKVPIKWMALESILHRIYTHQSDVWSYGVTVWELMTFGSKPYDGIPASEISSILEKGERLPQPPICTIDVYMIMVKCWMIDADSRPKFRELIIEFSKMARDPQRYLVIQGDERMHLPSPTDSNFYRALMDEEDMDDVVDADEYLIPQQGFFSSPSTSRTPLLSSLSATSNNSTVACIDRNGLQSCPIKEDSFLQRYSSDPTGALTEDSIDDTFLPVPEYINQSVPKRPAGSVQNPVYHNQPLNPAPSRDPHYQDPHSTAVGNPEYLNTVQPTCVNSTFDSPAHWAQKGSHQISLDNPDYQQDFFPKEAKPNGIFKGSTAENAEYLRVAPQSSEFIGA
# Method in brief: as §1
# EGFR Del19/C797S = EGFR Del19/C797S (Homo sapiens, UniProt P00533, C797S/DEL746-750); assay: Biochemical EGFR kinase inhibition assay (Lance Ultra TR-FRET), double mutant del19/C797S
# Sequence of EGFR Del19/C797S (P00533 with tags, fused parts or gaps DEL746-750/C797S): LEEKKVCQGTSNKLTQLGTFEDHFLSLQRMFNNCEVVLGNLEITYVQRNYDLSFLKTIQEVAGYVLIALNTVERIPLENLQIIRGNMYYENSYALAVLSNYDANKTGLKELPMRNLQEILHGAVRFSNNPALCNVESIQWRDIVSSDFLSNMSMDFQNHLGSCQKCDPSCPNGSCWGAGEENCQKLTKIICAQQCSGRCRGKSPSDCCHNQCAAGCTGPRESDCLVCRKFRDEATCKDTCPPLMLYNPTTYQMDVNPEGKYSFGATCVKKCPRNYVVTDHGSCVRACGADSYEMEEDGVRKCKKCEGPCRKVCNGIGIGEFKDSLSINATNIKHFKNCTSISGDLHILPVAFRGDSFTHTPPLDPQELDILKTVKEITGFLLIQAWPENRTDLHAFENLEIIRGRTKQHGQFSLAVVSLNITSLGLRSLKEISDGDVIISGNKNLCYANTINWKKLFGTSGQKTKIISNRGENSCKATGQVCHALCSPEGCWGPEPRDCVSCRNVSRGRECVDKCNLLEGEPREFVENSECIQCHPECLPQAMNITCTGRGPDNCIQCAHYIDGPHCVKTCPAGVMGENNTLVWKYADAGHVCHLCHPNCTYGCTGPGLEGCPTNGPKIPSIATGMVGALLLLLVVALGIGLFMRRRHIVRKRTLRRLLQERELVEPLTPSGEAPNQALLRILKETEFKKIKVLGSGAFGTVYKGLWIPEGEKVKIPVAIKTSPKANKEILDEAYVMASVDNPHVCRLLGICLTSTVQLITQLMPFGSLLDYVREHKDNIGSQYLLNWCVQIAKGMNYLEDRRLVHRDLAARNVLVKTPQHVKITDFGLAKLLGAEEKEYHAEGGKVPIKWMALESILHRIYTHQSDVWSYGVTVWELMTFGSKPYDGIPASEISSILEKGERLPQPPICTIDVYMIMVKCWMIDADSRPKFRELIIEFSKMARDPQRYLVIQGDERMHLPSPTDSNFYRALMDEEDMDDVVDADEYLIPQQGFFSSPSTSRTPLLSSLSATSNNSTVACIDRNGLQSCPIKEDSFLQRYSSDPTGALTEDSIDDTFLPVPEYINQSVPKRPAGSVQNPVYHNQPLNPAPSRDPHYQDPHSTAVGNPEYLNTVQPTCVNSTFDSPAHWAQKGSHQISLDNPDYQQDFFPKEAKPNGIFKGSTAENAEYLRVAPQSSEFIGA
# Method in brief: as §1
# EGFR L858R/C797S = EGFR L858R/C797S (Homo sapiens, UniProt P00533, C797S/L858R); assay: Biochemical EGFR kinase inhibition assay (Lance Ultra TR-FRET), double mutant L858R/C797S
# Sequence of EGFR L858R/C797S (P00533 25-1210 C797S/L858R): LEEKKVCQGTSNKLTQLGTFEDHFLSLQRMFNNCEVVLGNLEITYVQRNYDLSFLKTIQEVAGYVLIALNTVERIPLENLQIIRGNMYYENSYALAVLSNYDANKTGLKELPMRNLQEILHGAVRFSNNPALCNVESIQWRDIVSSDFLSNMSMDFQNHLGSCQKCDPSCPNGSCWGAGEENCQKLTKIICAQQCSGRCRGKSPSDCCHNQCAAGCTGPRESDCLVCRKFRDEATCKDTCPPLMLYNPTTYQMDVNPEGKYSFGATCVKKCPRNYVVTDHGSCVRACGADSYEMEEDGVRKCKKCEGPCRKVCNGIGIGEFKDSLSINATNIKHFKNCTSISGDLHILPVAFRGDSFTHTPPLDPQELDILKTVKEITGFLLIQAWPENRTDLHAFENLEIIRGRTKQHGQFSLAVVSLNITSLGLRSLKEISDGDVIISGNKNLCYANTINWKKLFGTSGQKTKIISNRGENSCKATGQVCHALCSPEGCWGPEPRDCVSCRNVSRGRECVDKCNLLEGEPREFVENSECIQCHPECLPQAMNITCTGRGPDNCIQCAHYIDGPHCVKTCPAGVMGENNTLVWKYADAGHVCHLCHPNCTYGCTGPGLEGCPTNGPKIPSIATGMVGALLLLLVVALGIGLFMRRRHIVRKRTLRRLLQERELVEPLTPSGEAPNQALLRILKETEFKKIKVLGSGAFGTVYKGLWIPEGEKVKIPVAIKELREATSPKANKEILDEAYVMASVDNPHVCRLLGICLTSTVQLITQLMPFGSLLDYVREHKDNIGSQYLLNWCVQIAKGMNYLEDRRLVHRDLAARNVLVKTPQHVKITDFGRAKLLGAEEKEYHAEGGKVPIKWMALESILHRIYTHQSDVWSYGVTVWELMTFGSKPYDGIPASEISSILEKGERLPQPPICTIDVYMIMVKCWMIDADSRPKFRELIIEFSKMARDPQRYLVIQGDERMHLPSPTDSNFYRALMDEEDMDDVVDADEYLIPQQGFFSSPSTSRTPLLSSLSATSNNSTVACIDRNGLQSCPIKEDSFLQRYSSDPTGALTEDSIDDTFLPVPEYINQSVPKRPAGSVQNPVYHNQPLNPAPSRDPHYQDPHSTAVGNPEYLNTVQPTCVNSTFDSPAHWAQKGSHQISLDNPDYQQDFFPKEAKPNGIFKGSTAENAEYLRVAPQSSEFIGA
# Method in brief: as §1
# EGFR wildtype (WT) = EGFR wildtype (WT) (Homo sapiens, UniProt P00533); assay: Biochemical EGFR kinase inhibition assay (Lance Ultra TR-FRET), wildtype
# Sequence of EGFR wildtype (WT) (P00533 25-1210): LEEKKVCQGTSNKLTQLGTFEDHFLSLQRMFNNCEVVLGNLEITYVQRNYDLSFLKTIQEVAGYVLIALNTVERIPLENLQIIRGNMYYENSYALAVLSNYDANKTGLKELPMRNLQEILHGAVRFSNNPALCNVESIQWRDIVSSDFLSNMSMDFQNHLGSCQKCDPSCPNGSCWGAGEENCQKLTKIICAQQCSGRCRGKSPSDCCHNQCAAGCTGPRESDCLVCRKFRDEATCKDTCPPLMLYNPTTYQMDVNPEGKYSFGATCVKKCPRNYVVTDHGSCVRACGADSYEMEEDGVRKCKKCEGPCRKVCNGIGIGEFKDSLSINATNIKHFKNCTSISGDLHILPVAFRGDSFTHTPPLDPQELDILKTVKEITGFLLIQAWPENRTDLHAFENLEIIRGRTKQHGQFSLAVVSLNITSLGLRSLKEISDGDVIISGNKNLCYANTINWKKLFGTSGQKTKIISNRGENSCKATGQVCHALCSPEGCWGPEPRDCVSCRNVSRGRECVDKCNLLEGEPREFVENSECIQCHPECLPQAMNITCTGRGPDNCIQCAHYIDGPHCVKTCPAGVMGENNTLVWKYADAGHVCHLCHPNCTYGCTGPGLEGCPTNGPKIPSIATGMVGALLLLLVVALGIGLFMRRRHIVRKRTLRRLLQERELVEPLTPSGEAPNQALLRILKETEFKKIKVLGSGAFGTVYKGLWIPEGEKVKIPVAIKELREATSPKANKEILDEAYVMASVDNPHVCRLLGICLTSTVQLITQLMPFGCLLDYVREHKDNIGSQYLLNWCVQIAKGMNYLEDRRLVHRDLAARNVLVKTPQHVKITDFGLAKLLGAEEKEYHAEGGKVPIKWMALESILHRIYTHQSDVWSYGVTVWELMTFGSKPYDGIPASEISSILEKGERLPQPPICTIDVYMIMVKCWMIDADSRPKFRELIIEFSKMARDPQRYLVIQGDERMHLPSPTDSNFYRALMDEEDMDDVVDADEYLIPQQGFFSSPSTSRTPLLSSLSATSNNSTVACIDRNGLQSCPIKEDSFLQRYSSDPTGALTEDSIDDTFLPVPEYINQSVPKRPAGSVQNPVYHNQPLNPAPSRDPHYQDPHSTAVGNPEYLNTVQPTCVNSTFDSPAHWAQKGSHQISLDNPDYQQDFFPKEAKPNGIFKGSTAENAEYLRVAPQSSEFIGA
# Method in brief: as §1
# [1] = IC50 Del19/T790M/C797S (nM), 100 μM ATP
# [2] = IC50 L858R/T790M/C797S (nM), 100 μM ATP
# [3] = IC50 Del19/C797S (nM), 100 μM ATP
# [4] = IC50 L858R/C797S (nM), 100 μM ATP
# [5] = ATP at Km, read-out: IC50 Del19/T790M/C797S (nM), Km ATP
# [6] = ATP at Km, read-out: IC50 L858R/T790M/C797S (nM), Km ATP
# [7] = ATP at Km, read-out: IC50 Del19/C797S (nM), Km ATP
# [8] = ATP at Km, read-out: IC50 L858R/C797S (nM), Km ATP
# [9] = ATP at Km, read-out: IC50 WT (nM), Km ATP
# [10] = Km ATP, read-out: IC50 Del19/T790M/C797S (nM), Km ATP
# [11] = Km ATP, read-out: IC50 L858R/T790M/C797S (nM), Km ATP
# [12] = Km ATP, read-out: IC50 Del19/C797S (nM), Km ATP
# [13] = Km ATP, read-out: IC50 L858R/C797S (nM), Km ATP
# [14] = Km ATP, read-out: IC50 WT (nM), Km ATP
SMILES,IC50 (EGFR Del19/T790M/C797S; [1]) [nM],IC50 (EGFR L858R/T790M/C797S; [2]) [nM],IC50 (EGFR Del19/C797S; [3]) [nM],IC50 (EGFR L858R/C797S; [4]) [nM],"IC50 (EGFR wildtype (WT); IC50 WT (nM), 100 μM ATP) [nM]",IC50 (EGFR Del19/T790M/C797S; [5]) [nM],IC50 (EGFR L858R/T790M/C797S; [6]) [nM],IC50 (EGFR Del19/C797S; [7]) [nM],IC50 (EGFR L858R/C797S; [8]) [nM],IC50 (EGFR wildtype (WT); [9]) [nM],IC50 (EGFR Del19/T790M/C797S; [10]) [nM],IC50 (EGFR L858R/T790M/C797S; [11]) [nM],IC50 (EGFR Del19/C797S; [12]) [nM],IC50 (EGFR L858R/C797S; [13]) [nM],IC50 (EGFR wildtype (WT); [14]) [nM],"IC50 (EGFR Del19/T790M/C797S; Km ATP, read-out: IC50 Del19/T790M/C797S (nM) Km ATP) [nM]","IC50 (EGFR L858R/T790M/C797S; Km ATP, read-out: IC50 L858R/T790M/C797S (nM) Km ATP) [nM]","IC50 (EGFR Del19/C797S; Km ATP, read-out: IC50 Del19/C797S (nM) Km ATP) [nM]","IC50 (EGFR L858R/C797S; Km ATP, read-out: IC50 L858R/C797S (nM) Km ATP) [nM]","IC50 (EGFR wildtype (WT); Km ATP, read-out: IC50 WT (nM) Km ATP) [nM]"
"Cn1ncc(C#Cc2cnc(Nc3ccnc(-c4cnn(S(=O)(=O)C5CC5)c4)n3)cc2N[C@H]2CC[C@@H](O)CC2)c1C1CC1 [Example 88, (1s,4s)-4-((5-((5-Cyclopropyl-1-methyl-1H-pyrazol-4-yl)ethynyl)-2-((2-(1-(cyclopropylsulfonyl)-1H-pyrazol-4-yl)pyrimidin-4-yl)amino)pyridin-4-yl)amino)cyclohexan-1-ol]",1.6,3.9,15.6,65,> 10000,–,–,–,–,–,–,–,–,–,–,–,–,–,–,–
"CC1(CO)CCN(c2cc(Nc3ccnc(-c4cnn(S(=O)(=O)C5CC5)c4)n3)ncc2C#CC2(O)CCOCC2)CC1 [Example 195, 4-((6-((2-(1-(cyclopropylsulfonyl)-1H-pyrazol-4-yl)pyrimidin-4-yl)amino)-4-(4-(hydroxymethyl)-4-methylpiperidin-1-yl)pyridin-3-yl)ethynyl)tetrahydro-2H-pyran-4-ol]",0.4,0.4,2.7,14.8,8540,0.3,0.1,2.4,2.3,19.6,–,–,–,–,–,–,–,–,–,–
"CC1(CO)CCN(c2cc(Nc3ccnc(-c4cnn(S(=O)(=O)C5CC5)c4)n3)ncc2C#CC2CCOCC2)CC1 [Example 179, (1-(2-((2-(1-(Cyclopropylsulfonyl)-1H-pyrazol-4-yl)pyrimidin-4-yl)amino)-5-((tetrahydro-2H-pyran-4-yl)ethynyl)pyridin-4-yl)-4-methylpiperidin-4-yl)methanol]",0.5,0.3,1.9,13.4,3880,0.4,0.2,0.8,1.5,6.2,–,–,–,–,–,–,–,–,–,–
"COC1(O)CCN(c2cc(Nc3ccnc(-c4cnn(S(=O)(=O)C5CC5)c4)n3)ncc2C#Cc2ccc(CN3CCN(C)CC3)cc2)CC1 [Example 369, 1-(2-((2-(1-(Cyclopropylsulfonyl)-1H-pyrazol-4-yl)pyrimidin-4-yl)amino)-5-((4-((4-methylpiperazin-1-yl)methyl)phenyl)ethynyl)pyridin-4-yl)-4-methoxypiperidin-4-ol]",0.4,0.4,2,6.4,1200,–,–,–,–,–,0.9,0.3,1.9,2.4,3.1,–,–,–,–,–
"O=S(=O)(C1CC1)n1cc(-c2nccc(Nc3cc(N4CCC5(CCCO5)CC4)c(C#Cc4cccnc4)cn3)n2)cn1 [Example 282, 2-(1-(Cyclopropylsulfonyl)-1H-pyrazol-4-yl)-N-(5-(pyridin-3-ylethynyl)-4-(1-oxa-8-azaspiro[4.5]decan-8-yl)pyridin-2-yl)pyrimidin-4-amine]",23.8,7.1,28.6,39.2,> 10000,5.5,–,8.3,4.2,50.7,–,–,–,–,–,–,–,–,–,–
"CC1(C#Cc2cnc(Nc3ccnc(-c4cnn(S(=O)(=O)C5CC5)c4)n3)cc2N[C@H]2CC[C@@H](O)CC2)CC1 [Example 359, (1s,4s)-4-((2-((2-(1-(Cyclopropylsulfonyl)-1H-pyrazol.-4-yl)pyrimidin-4-yl)amino)-5-((1-methylcyclopropyl)ethynyl)pyridin-4-yl)amino)cyclohexan-1-ol]",1.6,1.5,2.6,55.1,> 10000,–,–,–,–,–,0.9,0.4,2.2,3.6,26.7,–,–,–,–,–
"CC1(CO)CCN(c2cc(Nc3ccnc(-c4cnn(S(=O)(=O)C5CC5)c4)n3)ncc2C#Cc2ccccn2)CC1 [Example 259, (1-(2-((2-(1-(Cyclopropylsulfonyl)-1H-pyrazol-4-yl)pyrimidin-4-yl)amino)-5-(pyridin-2-ylethynyl)pyridin-4-yl)-4-methylpiperidin-4-yl)methanol]",0.5,0.5,1.2,36,3400,0.6,0.3,0.5,1.2,5.3,–,–,–,–,–,–,–,–,–,–
"Cn1cc(C#Cc2cnc(Nc3ccnc(-c4cnn(S(=O)(=O)C5CC5)c4)n3)cc2N2CCC(F)CC2)cn1 [Example 8, 2-(1-(Cyclopropylsulfonyl)-1H-pyrazol-4-yl)-N-(4-(4-fluoropiperidin-1-yl)-5-((1-methyl-1H-pyrazol-4-yl)ethynyl)pyridin-2-yl)pyrimidin-4-amine]",3.1,2.2,9.5,33.2,> 10000,–,–,–,–,–,–,–,–,–,–,–,–,–,–,–
"CN(C)C[C@H]1CC[C@H](COc2cc(Nc3ccnc(-c4cnn(S(=O)(=O)C5CC5)c4)n3)ncc2C#Cc2cccnc2)CC1 [Example 62, 2-(1-(Cyclopropylsulfonyl)-1H-pyrazol-4-yl)-N-(4-(((1r,4r)-4-((dimethylamino)methyl)cyclohexyl)methoxy)-5-(pyridin-3-ylethynyl)pyridin-2-yl)pyrimidin-4-amine]",–,–,–,–,–,–,–,–,–,–,–,–,–,–,–,0.2,0.1,0.4,4.9,7.9
"C[C@]1(O)CC[C@@H](Nc2cc(Nc3ccnc(-c4cnn(S(=O)(=O)C5CC5)c4)n3)ncc2C#Cc2cnn(CC(F)(F)F)c2)CC1 [Example 344, (1s, 4s)-4-((2-((2-(1-(Cyclopropylsulfonyl)-1H-pyrazol-4-yl)pyrimidin-4-yl)amino)-5-((1-(2,2,2-trifluoroethyl)-1H-pyrazol-4-yl)ethynyl)pyridin-4-yl)amino)-1-methylcyclohexan-1-ol]",11.5,5,50.6,112,> 10000,–,–,–,–,–,7.9,3.1,31.3,24.1,200,–,–,–,–,–
"CC1(CO)CCN(c2cc(Nc3ccnc(-c4cnn(S(=O)(=O)C5CC5)c4)n3)ncc2C#Cc2cnn(CC3CCCOC3)c2)CC1 (centres unmarked) [Example 241, (1-(2-((2-(1-(Cyclopropylsulfonyl)-1H-pyrazol-4-yl)pyrimidin-4-yl)amino)-5-((1-((tetrahydro-2H-pyran-3-yl)methyl)-1H-pyrazol-4-yl)ethynyl)pyridin-4-yl)-4-methylpiperidin-4-yl)methanol]",2.5,3.9,1.7,17.5,4180,2.1,0.8,1.2,2.3,9.1,–,–,–,–,–,–,–,–,–,–
"C#Cc1cnc(Nc2ccnc(-c3cnn(S(=O)(=O)C4CC4)c3)n2)cc1N1CCC(C)(CO)CC1 [Example 247, (1-(2-((2-(1-(Cyclopropylsulfonyl)-1H-pyrazol-4-yl)pyrimidin-4-yl)amino)-5-ethynylpyridin-4-yl)-4-methylpiperidin-4-yl)methanol]",0.1,0.5,1.7,42.3,8670,0.1,0.1,1.3,8.1,18.7,–,–,–,–,–,–,–,–,–,–

# Reference: patent publication US11981658B2, “Substituted aminopyridine compounds as EGFR inhibitors” (YUHAN CORPORATION, priority 2021, dated 2024)
